Test system: Rat liver homogenates
Experiment: Antioxidant activity: FeSO₄-induced peroxide production in rat liver homogenates (thiobarbituric acid reaction)
Format: biochemical
Settings: rat liver homogenate incubated with FeSO₄; peroxide determined by thiobarbituric acid reaction, malonaldehyde as standard; read-out: IC₅₀
Protocol: Rat liver homogenates were prepared according to Fraga, C.G. et al. Free Radicals Biol. Med., 4, 155, 1988 and Kornburst D.J. et al. Lipids 15, 315, 1980.
Peroxides were generated by incubation of the homogenate with the FeSO₄ as described by Quitanilha A.T. et al. Ann. N.Y., Acad. Sci. 393, 32, 1982.
Compounds to be tested for their antioxidant activity were dissolved in DMSO and added to the incubation mixture. The amount of peroxide produced was determined by the thiobarbituric acid reaction using malonaldehyde as standard.

Compound	IC50
CCOP(=O)(OCC)C(=Cc1cc(C(C)(C)C)c(O)c2ccccc12)P(=O)(OCC)OCC [Example 1, Tetraethyl 2-[3-t-butyl-4-hydroxynaphthyl]ethenylidene-1,1-diphosphonate]	1.5 µM
CC(C)OP(=O)(OC(C)C)C(=Cc1cc(C(C)(C)C)c(O)c2ccccc12)P(=O)(OC(C)C)OC(C)C [Example 2, Tetraisopropyl 2-[3-t-butyl-4-hydroxynaphthyl]ethenylidene-1,1-diphosphonate]	0.7 µM
CCOP(=O)(OCC)C(=Cc1cc(C(C)(C)C)c(O)c2c1CCCC2)P(=O)(OCC)OCC [Example 6, Tetraethyl 2-(3-tert-butyl-4-hydroxy-5,6,7,8-tetrahydronaphthyl)-ethenylidene-1,1-diphosphonate]	7 µM
CC(C)OP(=O)(OC(C)C)C(=Cc1cc(C(C)(C)C)c(O)c2c1CCCC2)P(=O)(OC(C)C)OC(C)C [Example 8, Tetraisopropyl 2-[3-tert-butyl-4-hydroxy-5,6,7,8-tetrahydronaphthyl]-ethenylidene-1,1-diphosphonate]	2.5 µM
